Results published in patent US20080069827A1, “miRNA of HSV-LAT and uses thereof” (priority 2006, published 2008).

What was measured:
Format in all cases: cell-based
[1] = test system: SY5Y cells; assay: Apoptosis assay (AnnexinV FITC staining after cisplatin or etoposide) in SY5Y cells; conditions: cisplatin 24 h post transfection, compared to control
Protocol: (§1) 24 hours post-transfection cells were treated with cisplatin (10 µM) or etoposide (1-100 μM), followed by staining with AnnexinV FITC (BD Biosciences). Cells showing FITC staining, loss of cell volume, loss of refractility, and membrane blebbing were scored as apoptotic. At least 500 cells were counted in each well.
as §1, with “μM)” for “µM)”, “([…]” for “(1-100”, “well. The data represent mean±S.D. from at least three independent experiments.” for “well.”

[2] = test system: HeLa cells; assay: Apoptosis assay (AnnexinV FITC staining after cisplatin or etoposide) in HeLa cells; conditions: cisplatin 24 h post transfection, compared to control miRNA
Protocol: as §1
as §1, with “μM)” for “µM)”, “([…]” for “(1-100”, “well. The data represent mean±S.D. from at least three independent experiments.” for “well.”

[3] = test system: 3′UTR of TGF-β; assay: Renilla luciferase reporter with 3′UTR / mirLAT target site of TGF-β in SY5Y cells
Protocol: (§2) Cells were co-transfected with pCDNA or PstMlu (1 μg) and the respective reporter constructs (500 ng) along with pSV-βgal (10 ng). For induction of TGF-p signaling, 24 h following transfection the cells were treated with 10 ng/ml of recombinant TGF-β1 protein (R&D systems). Reporter activity was measured using a appropriate assay kits (promega).
(§3) SY5Y cells were maintained in RPMI medium with 10% fetal calf serum and antibiotics. HeLa cells were grown in DMEM medium supplemented with 5% fetal calf serum and antibiotics. Plasmids having the PstMlu fragment of LAT and its deletion mutant ΔSty have been described. GFP-shRNA pSilencer plasmid was a kind gift from Dr Kuan-Teh Jeang, NIH, USA. The SBE4-Luc construct was a kind gift from Dr Anita Roberts, NIH, USA. The pGL3-control and pSV-βgal plasmids were obtained from Promega. The pRL-TK vector was obtained from Dr Zissimos Mourelatos, University of Pennsylvannia, USA. […] Recombinants were scored for reversion of deletion in ΔSty resulting in virus which is genetically similar to wild type virus. […]
(§4) Cells were co-transfected with pCDNA or PstMlu (1 μg) and the respective reporter constructs (500 ng) along with pSV-βgal (100 ng). […] Luciferase activity was measured using a renilla or firefly Luciferase assay kit (promega). β-galactosidase activity was determined in all lysates (promega) according to manufacturer's instructions. […]

[4] = test system: 3′UTR of SMAD-3; assay: Renilla luciferase reporter with 3′UTR / mirLAT target site of SMAD-3 in SY5Y cells
Protocol: as §2, §3, §4

[5] = test system: TGF-β/SMAD-dependent transcription; assay: SBE4-Luc TGF-β responsive reporter assay in SY5Y cells; conditions: 10 ng/ml recombinant TGF-β1
Protocol: as §2
Cells were co-transfected with pCDNA or PstMlu (1 μg) and the respective reporter constructs (500 ng) along with pSV-βgal (100 ng). For induction of TGF-β signaling, 24 h following transfection the cells were treated with 10 ng/ml of recombinant TGF-β 1 protein (R&D systems) for 12-16 hours at 37° C. in serum free media. Cells were lysed using the reporter lysis buffer (promega). Luciferase activity was measured using a renilla or firefly Luciferase assay kit (promega). β-galactosidase activity was determined in all lysates (promega) according to manufacturer's instructions. The Luciferase activity in all samples was normalized to the amount of β-galactosidase activity.

[6] = test system: TGF-β; assay: TGF-β expression (RT-PCR, latent TGF-β1 ELISpot); conditions: SY5Y cells
Protocol: (§5) RNA was isolated using Trizol reagent (Invitrogen). RNA was reverse transcribed using Superscript II RT enzyme (Invitrogen). Northern blot analysis of 50-60 μg total RNA was done as described previously. Western blot analysis was performed on whole cell lysates using Dicer polyclonal antibody and β-actin antibody (Amersham). SMAD-3 and TGF-β receptor I antibodies were from Abcam.
(§6) RNA was isolated using Trizol reagent according to the manufacturer's instruction. RNA was reverse transcribed using Superscript II RT enzyme (Invitrogen). Dicer, TGF-β 1, SMAD-3, TGF-β receptor I and GAPDH cDNA were amplified using gene specific primers. Northern blot analysis of 50-60 μg total RNA was done. Radioactive probes were generated using Starfire oligonucleotide labeling system (IDT). Western blot analysis was performed on whole cell lysates using Dicer polyclonal antibody, a kind gift from Dr Ramin Shiekhattar, Wistar Institute, Philadelphia, USA and β-actin antibody (Amersham). SMAD-3 and TGF-β receptor I antibodies were from Abcam. […] Synthetic RNA molecule corresponding to the mirLAT pre-miRNA (Dhramacon) was radiolabelled by polynucleotide kinase reaction (Invitrogen), column purified and incubated with 2 U Recombinant Dicer enzyme (Stratagene) at 37° C. for 16 hours and analyzed by gel electrophoresis and exposure to a phosphor imager screen.

[7] = test system: SMAD-3; assay: SMAD-3 expression (RT-PCR, Western blot); conditions: SY5Y cells
Protocol: as §5, §6

[8] = mutant target site that disrupts mirLAT binding
[9] = single copy of wild-type mirLAT target site

Substance | cisplatin-induced apoptosis (percentage apoptosis) [1] | cisplatin-induced apoptosis (percentage apoptosis) [2] | luciferase activity, mutant TGF-β target site construct [3, 8] | reduction in luciferase activity, wild-type TGF-β target site construct [3, 9] | luciferase activity, mutant SMAD-3 target site construct [4, 8] | reduction in luciferase activity, wild-type SMAD-3 target site construct [4, 9] | TGF-β mediated induction of SBE4-Luc reporter [5] | mRNA levels / expression of TGF-β [6] | mRNA levels / expression of SMAD-3 [7]
5′-GUGGCGGCCCGGCCCGGGGCCTT-3′ [mirLAT] | significant reduction in apoptosis | significant reduction in apoptosis | does not show any significant decrease in luciferase activity | up to 90% | does not show any significant decrease in luciferase activity | up to 90% | significant reduction in TGF-β mediated induction | – | –
CCAACUAUUGCUUCAGCUCTT (chemistry not given here) [TGF-β siRNA, siRNA directed against TGF-β (Ambion)] | confers resistance to apoptosis | – | – | – | – | – | – | inhibited | –
GCACAUAAUAACUUGGACCTT (chemistry not given here) [SMAD-3 siRNA, siRNA directed against SMAD-3 (Ambion)] | confers resistance to apoptosis | – | – | – | – | – | – | – | inhibited
